Experimental data as given in patent US20150297482A1, “MALODOR COUNTERACTING COMPOSITIONS AND METHOD FOR THEIR USE TO COUNTERACT SWEAT MALODOR” (FIRMENICH SA, priority 2009, published 2015).
Counter-ions that a name gives are not always drawn. Like-named read-outs stand apart in the source and are kept apart here.

System: Staphylococcus haemolyticus CNCM I-4170
Test: Protocol A: in-vitro malodor inhibition (free thiol groups from Cys-Gly precursor, DTNB absorbance at 412 nm)
Format: cell-based
Excerpt: Further details of such a screening and % inhibition measurement and definition are described further on in this application. The precursor used, which may also be in the form of a human sweat sample, typically generates malodorant sulfur compounds when acted upon by the Staphylococcus haemolyticus cells, or by a β-lyase present in such cells. The malodor inhibition coefficient, as defined herein, reflects the % of reduction in free SH groups generated in the above-mentioned medium by the enzymatic activity of the bacterial cells when in presence of the MOC ingredient or MOC composition in question, as compared to the same measurement in their absence. […] Alternatively, the bacterial cells can be replaced by a β-lyase present in said cells. […] Detection of enzymatic activity inhibition is measured via the sulfur groups, namely thiol groups, freed from the precursor bacterial transformation, by comparison with the reference experiment in the absence of the respective MOC ingredient, said sulfur groups being detected by interaction with DTNB, a known chemical detector system for thiols. The reaction can be monitored by absorbance reading at 412 nm. The procedure can be performed indifferently with either a purified or semi-purified enzyme or intact bacterial cells, as in the case described here. Malodor inhibition coefficient is measured as a function of the percentage of free thiol groups in the medium, over time, by an absorbance method, and reflects the reduction in malodor obtained in the presence of the MOC ingredients and compositions. […] At the end of the growth phase, the bacterial cells were harvested by centrifugation at 5000 rpm for 15 min. The cell pellet was then washed with 0.1 volumes of sterile potassium phosphate buffer 0.1 M, pH 7.5. […] The precursor was used at 0.17 mM final concentration. • Detection reagent DTNB • DTNB (5,5′-Dithio-bis-(2-nitrobenzoic acid; […]

[1] = Staphylococcus haemolyticus, CNCMI4170, 0.0012 w/v % in medium, read-out: Ingredient Malodor Inhibition Value (%)
[2] = Staphylococcus haemolyticus, CNCMI4170, 0.0025 w/v % in medium, read-out: Ingredient Malodor Inhibition Value (%)
[3] = Staphylococcus haemolyticus, CNCMI4170, 0.006 w/v % in medium, read-out: Ingredient Malodor Inhibition Value (%)
[4] = Staphylococcus haemolyticus, CNCMI4170, 0.0125 w/v % in medium, read-out: Ingredient Malodor Inhibition Value (%)
[5] = Staphylococcus haemolyticus, CNCMI4170, 0.025 w/v % in medium, read-out: Ingredient Malodor Inhibition Value (%)
[6] = Staphylococcus haemolyticus, CNCMI4170, 0.05 w/v % in medium, read-out: Ingredient Malodor Inhibition Value (%)
[7] = Staphylococcus haemolyticus, CNCMI4170, Table 2, 0.0012 w/v % in medium, read-out: Ingredient Malodor Inhibition Value (%)
[8] = Staphylococcus haemolyticus, CNCMI4170, Table 2, 0.0025 w/v % in medium, read-out: Ingredient Malodor Inhibition Value (%)
[9] = Staphylococcus haemolyticus, CNCMI4170, Table 2, 0.005 w/v % in medium, read-out: Ingredient Malodor Inhibition Value (%)
[10] = Staphylococcus haemolyticus, CNCMI4170, Table 2, 0.0125 w/v % in medium, read-out: Ingredient Malodor Inhibition Value (%)
[11] = Staphylococcus haemolyticus, CNCMI4170, Table 2, 0.025 w/v % in medium, read-out: Ingredient Malodor Inhibition Value (%)
[12] = Staphylococcus haemolyticus, CNCMI4170, Table 2, 0.05 w/v % in medium, read-out: Ingredient Malodor Inhibition Value (%)

Row | Compound | inhibition at 0.0012 % [1] | inhibition at 0.0025 % [2] | inhibition at 0.006 % [3] | inhibition at 0.0125 % [4] | inhibition at 0.025 % [5] | inhibition at 0.0012 % [7] | inhibition at 0.0025 % [8] | inhibition at 0.005 % [9] | inhibition at 0.0125 % [10] | inhibition at 0.025 % [11] | further results
1 | C=CC(C)(O)CCC=C(C)CCC=C(C)C (stereo not drawn) [Nerolidol] | 0% | 6.52% | 53.5% | 56.9% | 68.5% | – | – | – | – | – | inhibition at 0.05 % [6]: 66.8%
2 | CCCCCCCCC/C=C/C=O [(E)-2-Dodecenal] | – | – | – | – | – | 29.7% | 55.4% | 86.9% | 94% | – | inhibition at 0.0006 % (Staphylococcus haemolyticus, CNCMI4170, Table 2, 0.0006 w/v % in medium, read-out: Ingredient Malodor Inhibition Value (%)): 10.4%
3 | CCCCCCCCCCC=CC=O [2-Tridecenal (ethyl citrate solution), 2-Tridecenal] | – | – | – | – | – | 29% | 40.2% | 50% | 81% | – | –
4 | CCCCCCCCC=O [Nonanal] | – | – | – | – | – | 5.26% | 5.08% | 40.2% | 80.4% | 94.8% | inhibition at 0.05 % [12]: 97.8%
5 | CC(C=O)Cc1ccc(C(C)(C)C)cc1 (stereo not drawn) [Lilial ®, 3-(4-tert-butylphenyl)-2-methylpropanal] | 0.9% | 9.47% | 37.5% | 81% | 90% | – | – | – | – | – | –
6 | Terpenyl acetate | – | – | – | – | – | – | – | – | – | – | Ingredient Malodor Inhibition Value (%) (0.0012 w/v % in medium): 0.00%; Ingredient Malodor Inhibition Value (%) (0.0025 w/v % in medium): 0.00%; Ingredient Malodor Inhibition Value (%) (0.006 w/v % in medium): 0.00%; Ingredient Malodor Inhibition Value (%) (0.0125 w/v % in medium): 0.00%; Ingredient Malodor Inhibition Value (%) (0.025 w/v % in medium): 0.00%; Ingredient Malodor Inhibition Value (%) (0.05 w/v % in medium): 6.81%; Ingredient Malodor Inhibition Value (%) (0.1 w/v % in medium): 00.00%
7 | CC(C)c1cccc(C(C)CC=O)c1 (stereo not drawn) [3-(3-Isopropyl-1-phenyl)butanal] | – | – | – | – | – | – | – | – | – | – | Ingredient Malodor Inhibition Value (%) (Table 2, 0.0012 w/v % in medium): 16.63%; Ingredient Malodor Inhibition Value (%) (Table 2, 0.0025 w/v % in medium): 30.10%; Ingredient Malodor Inhibition Value (%) (Table 2, 0.005 w/v % in medium): 73.81%; Ingredient Malodor Inhibition Value (%) (Table 2, 0.0125 w/v % in medium): 95.51%; Ingredient Malodor Inhibition Value (%) (Table 2, 0.025 w/v % in medium): 99.45%; Ingredient Malodor Inhibition Value (%) (Table 2, 0.05 w/v % in medium): 97.34%
8 | c1nc2c(o1)CCCCCCCCCC2 [4,5,6,7,8,9,10,11,12,13-Decahydrocyclododeca-1,3-oxazole] | – | – | – | – | – | 0% | 0% | 52.2% | – | – | –
9 | O=C1CCCCCCCCCCC(=O)OCCO1 [1,4-Dioxacyclohexadecane-5,16-dione] | 0% | 0% | 0% | 28.2% | 37.3% | – | – | – | – | – | inhibition at 0.05 % [6]: 36.5%
10 | CC1(C)C2CC=C(CCC=O)C1C2 (stereo not drawn) [3-(6,6-Dimethyl-bicyclo[3.1.1]hept-2-en-2-yl)propanal] | – | – | – | – | – | 0% | 4.58% | 82.9% | 96.7% | 100% | inhibition at 0.05 % [12]: 96.3%
11 | CC(CCO)CC(C)(C)C (stereo not drawn) [3,5,5-Trimethyl-1-hexanol] | 0% | 0% | 0% | 0% | 35% | – | – | – | – | – | inhibition at 0.05 % [6]: 58.3%; inhibition at 0.1 % (Staphylococcus haemolyticus, CNCMI4170, 0.1 w/v % in medium, read-out: Ingredient Malodor Inhibition Value (%)): 62.9%
12 | CCCCCCC/C=C/C=O [(E)-2-Decenal] | – | – | – | – | – | 22% | 28.2% | 66.6% | 90.1% | 100% | –
13 | CC=CCCCCCCCC=O [9-Undecenal] | – | – | – | – | – | 0% | 0% | 62.4% | 89% | 81.8% | inhibition at 0.05 % [12]: 77.9%
